Source: ChEMBL document CHEMBL1201862, “PubChem BioAssay data set” (2004)
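These data come from cells grown in 96-well plates and exposed to compound for 48 hours at five concentrations. At the GI50, growth is halved.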 Activity calls are given as the source filed them. Rule as the data show it: active = GI50 up to about 1.1 µM and inactive = higher.

Assays:
Assay in all cases: growth of human tumour cells (NCI), 48 h
786-0 = system: 786-0
CAKI-1 = system: CAKI-1
COLO 205 = system: COLO 205
EKVX = system: EKVX
HL-60 = system: HL-60
NCI-H23 = system: NCI-H23
OVCAR-3 = system: OVCAR-3
RPMI-8226 = system: RPMI-8226
RXF 393 = system: RXF 393
SF-268 = system: SF-268
SF-539 = system: SF-539
SK-MEL-28 = system: SK-MEL-28
SK-MEL-2 = system: SK-MEL-2
SNB-78 = system: SNB-78
UACC-257 = system: UACC-257
MDA-MB-435 = system: MDA-MB-435
NCI-H522 = system: NCI-H522
PC-3 = system: PC-3
T47D = system: T47D
M19-MEL = system: M19-MEL

Structure (SMILES) | GI50 (786-0) | GI50 (CAKI-1) | GI50 (COLO 205) | GI50 (EKVX) | GI50 (HL-60) | GI50 (NCI-H23) | GI50 (OVCAR-3) | GI50 (RPMI-8226) | GI50 (RXF 393) | GI50 (SF-268) | GI50 (SF-539) | GI50 (SK-MEL-28) | GI50 (SK-MEL-2) | GI50 (SNB-78) | GI50 (UACC-257) | GI50 (MDA-MB-435) | GI50 (NCI-H522) | GI50 (PC-3) | GI50 (T47D) | GI50 (M19-MEL)
Cc1cnoc1/N=C1\C=C(Nc2oncc2C)C(=O)c2ccccc21 | > 100 µM (inactive) | > 100 µM (inactive) | > 100 µM (inactive) | > 100 µM (inactive) | > 100 µM (inactive) | 60.5 µM (inactive) | 9.86 µM (inactive) | > 100 µM (inactive) | > 100 µM (inactive) | > 100 µM (inactive) | > 100 µM (inactive) | > 100 µM (inactive) | > 100 µM (inactive) | > 100 µM (inactive) | 65.6 µM (inactive) | – | – | – | – | –
CCc1ccc(CCC(=O)O)nc1 | > 100 µM (inactive) | > 100 µM (inactive) | > 100 µM (inactive) | > 100 µM (inactive) | > 100 µM (inactive) | > 100 µM (inactive) | > 100 µM (inactive) | > 100 µM (inactive) | > 100 µM (inactive) | > 100 µM (inactive) | > 100 µM (inactive) | > 100 µM (inactive) | > 100 µM (inactive) | – | > 100 µM (inactive) | > 100 µM (inactive) | > 100 µM (inactive) | > 100 µM (inactive) | > 100 µM (inactive) | –
CC(CN(C)C)/C(=N\Nc1ccccc1)c1ccccc1 (stereo not drawn) | 0.499 µM (active) | – | 1.03 µM (active) | 1.3 µM (inactive) | 0.419 µM (active) | 3.4 µM (inactive) | 1.16 µM (inactive) | 0.366 µM (active) | 11.4 µM (inactive) | 0.22 µM (active) | 0.272 µM (active) | 2.02 µM (inactive) | – | 6.1 µM (inactive) | 2.12 µM (inactive) | – | 0.889 µM (active) | – | – | 1.24 µM (inactive)
CC(=O)O[C@H]1C#C/C=C\C#CC[C@@H]2C(=O)N[C@@H]12 | 5.42 µM (inactive) | 4.5 µM (inactive) | 50.4 µM (inactive) | > 100 µM (inactive) | 1.99 µM (inactive) | 11.2 µM (inactive) | > 78.3 µM (inactive) | 21.3 µM (inactive) | 23.2 µM (inactive) | 18.6 µM (inactive) | 0.726 µM (active) | 93.3 µM (inactive) | 67.8 µM (inactive) | – | > 42.4 µM (inactive) | > 100 µM (inactive) | 19.1 µM (inactive) | > 100 µM (inactive) | 52.7 µM (inactive) | –
COc1ccc(S(=O)(=O)N/N=C\c2cc([N+](=O)[O-])cc(I)c2O)c(OC)c1OC | 24.7 µM (inactive) | 30.1 µM (inactive) | 21.4 µM (inactive) | 29.9 µM (inactive) | 26.6 µM (inactive) | 30.5 µM (inactive) | 20.7 µM (inactive) | 26.5 µM (inactive) | 20.8 µM (inactive) | 26.5 µM (inactive) | – | 24.5 µM (inactive) | 21.4 µM (inactive) | 28.6 µM (inactive) | 26.7 µM (inactive) | – | – | – | – | 31.7 µM (inactive)
Cc1ccc(S(=O)(=O)CC(=O)CC(=O)C(=O)Nc2cccc(C(F)(F)F)c2)cc1 | > 100 µM (inactive) | > 100 µM (inactive) | – | > 100 µM (inactive) | 97.1 µM (inactive) | > 100 µM (inactive) | > 100 µM (inactive) | > 100 µM (inactive) | – | > 100 µM (inactive) | > 100 µM (inactive) | > 100 µM (inactive) | > 100 µM (inactive) | > 100 µM (inactive) | > 100 µM (inactive) | – | > 100 µM (inactive) | – | – | > 100 µM (inactive)
COc1cc2c(cc1OC)C(C(=O)O)C(c1ccccc1)N(C)C2=O (stereo not drawn) | > 100 µM (inactive) | > 100 µM (inactive) | > 100 µM (inactive) | > 100 µM (inactive) | – | > 100 µM (inactive) | > 100 µM (inactive) | > 100 µM (inactive) | – | > 100 µM (inactive) | > 100 µM (inactive) | > 100 µM (inactive) | > 100 µM (inactive) | > 100 µM (inactive) | > 100 µM (inactive) | – | > 100 µM (inactive) | – | – | > 100 µM (inactive)
CC1=C(C(=O)Nc2ccccc2C)C(c2ccc([N+](=O)[O-])cc2)C(C(=O)Nc2ccccc2C)=C(C)N1 | 53.3 µM (inactive) | 36.6 µM (inactive) | 29.9 µM (inactive) | > 100 µM (inactive) | 19.8 µM (inactive) | 37.5 µM (inactive) | 40.1 µM (inactive) | 28.6 µM (inactive) | 16.4 µM (inactive) | 39.1 µM (inactive) | 53.6 µM (inactive) | 63.4 µM (inactive) | 38.2 µM (inactive) | – | 55.3 µM (inactive) | – | 32 µM (inactive) | – | – | 64.1 µM (inactive)
CCN(CC)CCCCC1CCN(CC(=O)N2CC(C)C(=O)Nc3ccccc32)CC1 (stereo not drawn) | > 100 µM (inactive) | > 100 µM (inactive) | > 100 µM (inactive) | – | > 100 µM (inactive) | > 100 µM (inactive) | > 100 µM (inactive) | > 100 µM (inactive) | – | > 100 µM (inactive) | – | > 100 µM (inactive) | – | – | > 100 µM (inactive) | – | – | – | – | > 100 µM (inactive)
